Patent US20090118285A1, “USE OF KCNQ-OPENERS FOR TREATING OR REDUCING THE SYMPTOMS OF SCHIZOPHRENIA” (H. Lundbeck A/S, priority 2006, published 2009)

Assays:
DA neurons in the VTA = test: Spontaneous DA cell firing in the VTA of anaesthetised rats (in vivo electrophysiology); parameters: species or system rat; conditions: mean ± SEM
From the text: In the mesolimbic system, all clinically used neuroleptics initially increase the firing rate of dopaminergic neurons (Tung et al., 1991, J. Neural Transm. Gen Sect., 84(1-2), 53-64,). After chronic administration, such neuroleptics eventually (after 3-4 weeks of treatment) decrease the firing rate to below pre-treatment levels (Skarsfeldt 1992, Synapse, 10, 25-33; White and Wang 1983, Science, 221, 1054-1057). This inhibitory effect on dopaminergic neurones, which is believed to be mediated by a depolarization blockade, is thought to be of therapeutic significance to the antipsychotic effect of neuroleptics (Grace and Bunney 1986, J. Pharmacol. Exp. Ther. 238, 1092-1100). […] The presence of KCNQ subunits on DA neurons in the VTA in rodents is well-documented but their functionality is unknown (Saganich et al. 2001, J. Neurosci. 21(13)4609-4624; Cooper et al. 2001, J. Neurosci., 21(24)9529-9540).
Subjects. Male Wistar rats (Harlan, The Netherlands) weighing 270-340 g were used. The animals were housed under a 12-hr light/dark cycle under controlled conditions for regular in-door temperature (21±2° C.) and humidity (55±5%) with food and tap water available ad libitum.
Experimental procedure. The rats were anaesthetised with an intraperitoneal injection of chloral hydrate (400 mg/kg). A femoral vein catheter was then inserted for supplementary anaesthetic injections (100 mg/kg) and drug administration. Animals were then mounted in a stereotaxic frame, the skull was exposed, and a hole (0.5×0.5 cm) was drilled above the ventral tegmental area. Extracellular single-cell recordings were performed using electrodes pulled from glass capillaries and filled with 2% Pontamine Sky Blue in 2 M NaCl. The tip of the electrode was broken under microscopic control, yielding an impedance of 2.0-8.0 MΩ at 135 Hz. The electrode was then lowered into the brain, using a hydraulic microdrive, aimed at the following coordinates: 5.5-5.0 mm posterior to Bregma; 0.5-0.9 mm lateral to the midline. Extracellular action potentials were amplified, discriminated and monitored on an oscilloscope and an audiomonitor. Discriminated spikes were collected and analysed using Spike 2 software (Cambridge Electronic Design Ltd., Cambridge, UK) on a PC-based system connected to a CED 1401 interface unit (Cambridge Electronic Design Ltd.). Presumed dopaminergic neurons were typically found 7.0-8.5 mm beneath the brain surface and were characterised by (1) a slow and irregular firing pattern (0.5-10 Hz), and (2) triphasic action potentials with a predominant positive component, a negative component followed by a minor positive component, with an overall duration >2.5 ms (Bunney et al. 1973, J. Pharmacol. Exp. Ther., 185, 560-571.).
Administration of compounds. […] These i.v. doses match the s.c. dose range of 0-10 mg/kg.
Statistical analysis. Drug effects were assessed by statistical comparison of the mean firing rate calculated from the 2-3 min period immediately before the first drug administration (baseline) to the mean firing rate calculated from at least 60 s at the maximal drug effect. Data were analysed statistically by a one-way ANOVA followed by Student-Newman-Keuls posthoc test. A p-value less than 0.05 was considered significant.

[1] = test system: DA levels in the nucleus accumbens; test: Microdialysis: DA levels in the nucleus accumbens of freely moving rats; format: in vivo, rat; conditions: 8.1 mg/kg s.c.
From the text: It is well-known that psychostimulants increase locomotor activity via an increase in extracellular DA levels in the nucleus accumbens, which is the terminal area of the mesolimbic DA projections (Guix et al., 1992, Neurosci. Lett., 138(1), 137-140; Moghaddam et al., 1989, Synapse, 4(2), 156-161). It is also known, that the antagonistic effect of antipsychotics on stimulant-induced hyperlocomotion is related to the effect of antipsychotics to inhibit the stimulated DA levels in the nucleus accumbens (Broderick et al., 2004, Prog. Neuropsychopharmacology and Biol. Psych., 28, 157-171). Thus, the nucleus accumbens is an accepted neuroanatomical site for testing reversal of positive symptoms of psychosis. […] The experiments were conducted such that the data may be associated with the behavioural data obtained above.
Subjects. Male Sprague-Dawley rats (Charles River), initially weighing 275-300 g, were used. The animals were housed under a 12-hr light/dark cycle under controlled conditions for regular in-door temperature (21±2° C.) and humidity (55±5%) with food and tap water available ad libitum.
Surgery. Animals were anaesthetized with hypnorm/dormicum (2 ml/kg s.c.) and intracerebral guide cannulas (CMA/12) were stereotaxically implanted, positioning the dialysis probe tip in the nucleus accumbens (co-ordinates: […] anterior to bregma, —1.2 mm lateral to bregma, 8.0 mm ventral to the dura). Anchor screws and acrylic cement was applied for fixation of the guide cannula. The body temperature of the animals was maintained at 37° C. by means of a rectal probe and a heating plate. The rats were allowed to recover from surgery for 2 days, housed singly in cages.
Experimental procedure. On the day of the experiment, a microdialysis probe (CMA/12, 0.5 mm diameter, 2 mm length) was inserted through the guide cannula of the conscious animal. The probes were connected to a microinjection pump via a dual channel swivel which allowed the animals unrestricted movements. Perfusion of the microdialysis probe with filtered Ringer solution (145 mM NaCl, 3 mM KCl, 1 mM MgCl2, 1.2 mM CaCl2) was maintained for the duration of the experiment at a constant flow rate of 1 μL/min. After 180 min of stabilisation, the experiments were initiated. Dialysates were collected every 20 min. After the experiments the rats were sacrificed by decapitation, their brains removed, frozen and sliced for probe placement verification.
Administration of compounds. […] Thirty min after the first administration dex-amphetamine sulphate (0.5 mg/kg s.c.) was administered.
Analysis of dialysate. The concentration of dopamine (DA) in the dialysates was assessed by means of HPLC with electrochemical detection. The dialysate constitutents were separated by reverse phase liquid chromatography (ODS 150×3 mm, […]). Mobile phase consisted of 90 mM NaH2PO4, 50 mM sodium citrate, 367 mg/l sodium 1-octanesulfonic acid, 50 μM EDTA and 8% acetonitrile (pH 4.0) at a flow rate of 0.5 ml/min. Electrochemical detection of DA was accomplished using a coulometric detector; potential set at E1=−75 mV and E2=300 mV (guard cell at 350 mV) (Coulochem II, ESA). The dialysate levels of DA in the three dialyse samples preceding the administration of compound were averaged and used as baseline level of DA (100%)

in vivo = conditions: Wistar, rat, sc

For `CCOC(=O)Nc1ccc(NCc2ccc(F)cc2)cc1N`, the “Spontaneous DA cell firing rate” value (DA neurons in the VTA; cumulated dose 0.3 mg/kg i.v.) was 95.4 ± 5.0 (4) percentage of baseline firing rate, the “Spontaneous DA cell firing rate” value (DA neurons in the VTA; cumulated dose 1.0 mg/kg i.v.) was 90.5 ± 4.6 (5) percentage of baseline firing rate and the “Spontaneous DA cell firing rate” value (DA neurons in the VTA; cumulated dose 2.0 mg/kg i.v.) was 81.1 ± 5.1 (5) percentage of baseline firing rate. The “Spontaneous DA cell firing rate” value (DA neurons in the VTA; cumulated dose 4.0 mg/kg i.v.) was 67.1 ± 3.7 (4) percentage of baseline firing rate, the “Spontaneous DA cell firing rate” value (DA neurons in the VTA; cumulated dose 6.0 mg/kg i.v.) was 60.6 ± 0.7 (2) percentage of baseline firing rate and the “DA level in the nucleus accumbens, amphetamine + compound” value (“DA level in the nucleus accumbens” for short) ([1]; time 0 min, freely moving rats) was 96 ± 6 % of baseline. The “DA level in the nucleus accumbens” value ([1]; time 20 min, amphetamine 0.5 mg/kg s.c. 30 min after compound) was 160 ± 11 % of baseline, the “DA level in the nucleus accumbens” value ([1]; time 40 min, amphetamine 0.5 mg/kg s.c. 30 min after compound) was 241 ± 33 % of baseline and the “DA level in the nucleus accumbens” value ([1]; time 60 min, amphetamine 0.5 mg/kg s.c. 30 min after compound) was 221 ± 26 % of baseline. For the same compound, the “DA level in the nucleus accumbens” value ([1]; time 80 min, amphetamine 0.5 mg/kg s.c. 30 min after compound) was 217 ± 14 % of baseline, the “DA level in the nucleus accumbens” value ([1]; time 100 min, amphetamine 0.5 mg/kg s.c. 30 min after compound) was 173 ± 9 % of baseline and the “DA level in the nucleus accumbens” value ([1]; time 120 min, amphetamine 0.5 mg/kg s.c. 30 min after compound) was 139 ± 9 % of baseline. The “DA level in the nucleus accumbens” value ([1]; time 140 min, amphetamine 0.5 mg/kg s.c. 30 min after compound) was 120 ± 9 % of baseline, the “DA level in the nucleus accumbens” value ([1]; time −20 min, freely moving rats) was 99 ± 6 % of baseline and the “DA level in the nucleus accumbens” value ([1]; time −40 min, freely moving rats) was 105 ± 3 % of baseline. The ED50 at 2 h (in vivo) was > 8.1 mg/kg.
